Assay results published in US20240376097A1, “BCL-2 Inhibitor” (BeiGene Ltd., priority 2020, published 2024).

Assays:
[1] = Metabolic Stability Study, liver microsome incubation (human); format: in vitro ADME; details: human liver microsomes 0.5 mg/mL, 1 μM compound, NADPH; for microsomal CLint at 1 μM: read-out: CLint (μL × min^−1 × mg^−1) Human
Protocol: (§1) Biological Example: Metabolic Stability Study
(§2) The metabolic stability of some compounds was evaluated by using the liver microsome incubation system in vitro. Briefly, the test compounds at 1 μM, were incubated with 0.5 mg/mL liver microsomes from different species (human, dog, rat and mouse) with an NADPH regenerating system at 37° C. Samples were quenched at three time points (0, 30, 60 min) with organic solvent containing internal standards, and the supernatant was analyzed for parent loss via LC-MS/MS. Midazolam was used as the positive control to validate the incubation system.
(§3) where Cprotein is the microsomal protein concentration in the incubation system.
(§4) The value of CLint and T1/2 of Example F132b in WO2019210818 and representative compounds of the disclosure were determined, and the results are shown in Table 5.

[2] = Metabolic Stability Study, liver microsome incubation (mouse); format: in vitro ADME; details: mouse liver microsomes 0.5 mg/mL, 1 μM compound, NADPH; for microsomal CLint at 1 μM: read-out: CLint (μL × min^−1 × mg^−1) mouse
Protocol: as §1, §2, §3, §4

[3] = test system: BCL-2 G101V knock-in cell line H96 (derive from RS4;11); test: Bcl 2-G101V Knock-In RS4;11 Cell Proliferation Assay; format: cell-based; details: Homo sapiens, RS4-11, 48 h, RS4;11 Bcl-2 G101V knock-in clone H96, 48 hrs, CellTiter-GLO, read-out: Cellular proliferation assay (IC50, nM) RS4
How it was run: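 CellTiter-Glo luminescence after 48 h, 37 °C compound treatment (10 concentrations, maximum 1 μM or 10 μM) gave mean IC50 values. Cells were 50,000 per well of H96, a BCL2-G101V knock-in single clone derived from RS4;11 by Cas9 editing.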

[4] = test system: RS4;11 (BCL-2 dependent acute lymphoblastic leukemia cell line); test: RS4;11 Cell Proliferation Assay; format: cell-based; details: Homo sapiens, RS4;11 cells, read-out: Cellular proliferation assay (IC50, nM) RS4
How it was run: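 Viability measured via CellTiter-Glo luminescence after a 48 h, 37 °C exposure to compounds (10 points, highest 1 μM). Seeding was 50,000 RS4;11 cells per well in 10% FBS RPMI-1640; IC50 given as mean.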

CC(C)c1ccccc1[C@@H]1CN(Cc2ccc(OC3CC3)c(OC3CC3)c2)CCN1C1CC2(C1)CN(c1ccc(C(=O)NS(=O)(=O)c3ccc(NC[C@H]4CC[C@](C)(O)CC4)c([N+](=O)[O-])c3)c(Oc3cnc4[nH]cc(F)c4c3)c1)C2 [Example 363, 4-(6-((R)-4-(3,4-dicyclopropoxybenzyl)-2-(2-isopropylphenyl)piperazin-1-yl)-2-azaspiro[3.3]heptan-2-yl)-2-((3-fluoro-1H-pyrrolo[2,3-b]pyridin-5-yl)oxy)-N-((4-((((1r,4r)-4-hydroxy-4-methylcyclohexyl)methyl)amino)-3-nitrophenyl)sulfonyl) benzamide]
microsomal CLint at 1 μM [1]: < 1 µL/min/mg | microsomal CLint at 1 μM [2]: < 1 µL/min/mg | IC50 [3]: 0.14 nM | IC50 [4]: 0.11 nM

COc1cc(CN2CCN(C3CC4(CCN(c5ccc(C(=O)NS(=O)(=O)c6ccc(NC[C@H]7CC[C@](C)(O)CC7)c([N+](=O)[O-])c6)c(Oc6cnc7[nH]ccc7c6)c5)CC4)C3)C(c3ccccc3C(C)C)C2)cc(OC)c1 (stereo partly shown) [Example 49]
half-life at 1 μM ([1]; NA^# = very stable, beyond the detection limits, read-out: T1/2 (min) Human): 93.4 min | microsomal CLint at 1 μM [1]: 14.8 µL/min/mg | half-life at 1 μM ([2]; NA^# = very stable, beyond the detection limits, read-out: T1/2 (min) mouse): 205 min | microsomal CLint at 1 μM [2]: 6.7 µL/min/mg | IC50 [3]: 2.4 nM | IC50 [4]: 0.49 nM
